From patent publication US11331369B2, “Endoparasitic depsipeptides” (Zoetis Services LLC, priority 2017, dated 2022)

Test system: microfilariae of Dirofilaria immitis
Assay: Dirofilaria immitis, Microfilaria (DiMF) In vitro Assay
Assay type: cell-based
Details: 72 h, read-out: DiMF Minimum Effective Dose (MED), approximately 72 hours incubation, microfilariae assessed for survival or paralysis

SMILES | minimal effective concentration [µM]
CC(C)C[C@H]1C(=O)O[C@H](Cc2cccc(Cn3ccnc3CO)c2)C(=O)N(C)[C@@H](CC(C)C)C(=O)O[C@H](C)C(=O)N(C)[C@@H](CC(C)C)C(=O)O[C@H](Cc2ccc(Cn3ccnc3CO)cc2)C(=O)N(C)[C@@H](CC(C)C)C(=O)O[C@H](C)C(=O)N1C [Example 7-11, (3S,6R,9S,12R,15S,18R,21S,24R)-6-(3-((2-(hydroxymethyl)-1H-imidazol-1-yl)methyl)benzyl)-18-(4-((2-(hydroxymethyl)-1H-imidazol-1-yl)methyl)benzyl)-3,9,15,21-tetraisobutyl-4,10,12,16,22,24-hexamethyl-1,7,13,19-tetraoxa-4,10,16,22-tetraazacyclotetracosan-2,5,8,11,14,17,20,23-octaone] | 0.01 to 0.1
CC(C)C[C@H]1C(=O)O[C@H](Cc2ccc(Cn3ccnc3)cc2)C(=O)N(C)[C@@H](CC(C)C)C(=O)O[C@H](C)C(=O)N(C)[C@@H](CC(C)C)C(=O)O[C@H](Cc2ccccc2)C(=O)N(C)[C@@H](CC(C)C)C(=O)O[C@H](C)C(=O)N1C [Example 8-2, (3S,6R,9S,12R,15S,18R,21S,24R)-6-benzyl-18-[[4-(imidazol-1-ylmethyl)phenyl]methyl]-3,9,15,21-tetraisobutyl-4,10,12,16,22,24-hexamethyl-1,7,13,19-tetraoxa-4,10,16,22-tetrazacyclotetracosane-2,5,8,11,14,17,20,23-octaone] | 0.01 to 0.1
Cc1cn(Cc2ccc(C[C@H]3OC(=O)[C@H](CC(C)C)N(C)C(=O)[C@@H](C)OC(=O)[C@H](CC(C)C)N(C)C(=O)[C@@H](Cc4ccccc4)OC(=O)[C@H](CC(C)C)N(C)C(=O)[C@@H](C)OC(=O)[C@H](CC(C)C)N(C)C3=O)cc2)c(C)n1 [Example 8-5, (3S,6R,9S,12R,15S,18R,21S,24R)-6-benzyl-18-(4-((2,4-dimethyl-1H-imidazol-1-yl)methyl)benzyl)-3,9,15,21-tetraisobutyl-4,10,12,16,22,24-hexamethyl-1,7,13,19-tetraoxa-4,10,16,22-tetraazacyclotetracosan-2,5,8,11,14,17,20,23-octaone] | 0.01 to 0.1
CC(C)C[C@H]1C(=O)O[C@H](Cc2ccc(Cn3ccnc3I)cc2)C(=O)N(C)[C@@H](CC(C)C)C(=O)O[C@H](C)C(=O)N(C)[C@@H](CC(C)C)C(=O)O[C@H](Cc2ccccc2)C(=O)N(C)[C@@H](CC(C)C)C(=O)O[C@H](C)C(=O)N1C [Example 8-10, (3S,6R,9S,12R,15S,18R,21S,24R)-6-benzyl-18-(4-((2-iodo-1H-imidazol-1-yl)methyl)benzyl)-3,9,15,21-tetraisobutyl-4,10,12,16,22,24-hexamethyl-1,7,13,19-tetraoxa-4,10,16,22-tetraazacyclotetracosan-2,5,8,11,14,17,20,23-octaone] | 0.01 to 0.1
Cc1ncn(Cc2ccc(C[C@H]3OC(=O)[C@H](CC(C)C)N(C)C(=O)[C@@H](C)OC(=O)[C@H](CC(C)C)N(C)C(=O)[C@@H](Cc4ccccc4)OC(=O)[C@H](CC(C)C)N(C)C(=O)[C@@H](C)OC(=O)[C@H](CC(C)C)N(C)C3=O)cc2)c1C [Example 8-11, (3S,6R,9S,12R,15S,18R,21S,24R)-6-benzyl-18-(4-((4,5-dimethyl-1H-imidazol-1-yl)methyl)benzyl)-3,9,15,21-tetraisobutyl-4,10,12,16,22,24-hexamethyl-1,7,13,19-tetraoxa-4,10,16,22-tetraazacyclotetracosan-2,5,8,11,14,17,20,23-octaone] | 0.01 to 0.1
CC(C)C[C@H]1C(=O)O[C@H](Cc2ccc(Cn3ccnc3CF)cc2)C(=O)N(C)[C@@H](CC(C)C)C(=O)O[C@H](C)C(=O)N(C)[C@@H](CC(C)C)C(=O)O[C@H](Cc2ccccc2)C(=O)N(C)[C@@H](CC(C)C)C(=O)O[C@H](C)C(=O)N1C [Example 8-14, (3S,6R,9S,12R,15S,18R,21S,24R)-6-benzyl-18-(4-((2-(fluoromethyl)-1H-imidazol-1-yl)methyl)benzyl)-3,9,15,21-tetraisobutyl-4,10,12,16,22,24-hexamethyl-1,7,13,19-tetraoxa-4,10,16,22-tetraazacyclotetracosan-2,5,8,11,14,17,20,23-octaone] | 0.01 to 0.1
CC(C)C[C@H]1C(=O)O[C@H](Cc2ccc(CN3CCSCC3)cc2)C(=O)N(C)[C@@H](CC(C)C)C(=O)O[C@H](C)C(=O)N(C)[C@@H](CC(C)C)C(=O)O[C@H](Cc2ccc(CN3CCSCC3)cc2)C(=O)N(C)[C@@H](CC(C)C)C(=O)O[C@H](C)C(=O)N1C [Example 9-2, (3S,6R,9S,12R,15S,18R,21S,24R)-3,9,15,21-tetraisobutyl-4,6,10,16,18,22-hexamethyl-12,24-bis(4-(thiomorpholinomethyl)benzyl)-1,7,13,19-tetraoxa-4,10,16,22-tetraazacyclotetracosan-2,5,8,11,14,17,20,23-octaone] | 0.01 to 0.1
CC(C)C[C@H]1C(=O)O[C@H](Cc2ccc(CN3CCC(F)(F)CC3)cc2)C(=O)N(C)[C@@H](CC(C)C)C(=O)O[C@H](C)C(=O)N(C)[C@@H](CC(C)C)C(=O)O[C@H](Cc2ccc(CN3CCC(F)(F)CC3)cc2)C(=O)N(C)[C@@H](CC(C)C)C(=O)O[C@H](C)C(=O)N1C [Example 9-4, (3S,6R,9S,12R,15S,18R,21S,24R)-6,18-bis(4-((4,4-difluoropiperidin-1-yl)methyl)benzyl)-3,9,15,21-tetraisobutyl-4,10,12,16,22,24-hexamethyl-1,7,13,19-tetraoxa-4,10,16,22-tetraazacyclotetracosan-2,5,8,11,14,17,20,23-octaone] | 0.01 to 0.1
CC(C)C[C@H]1C(=O)O[C@H](Cc2ccc(N3CCCC(F)(F)C3)cc2)C(=O)N(C)[C@@H](CC(C)C)C(=O)O[C@H](C)C(=O)N(C)[C@@H](CC(C)C)C(=O)O[C@H](Cc2ccc(CN3CCCC(F)(F)C3)cc2)C(=O)N(C)[C@@H](CC(C)C)C(=O)O[C@H](C)C(=O)N1C [Example 9-5, (3S,6R,9S,12R,15S,18R,21S,24R)-6-(4-(3,3-difluoropiperidin-1-yl)benzyl)-18-(4-((3,3-difluoropiperidin-1-yl)methyl)benzyl)-3,9,15,21-tetraisobutyl-4,10,12,16,22,24-hexamethyl-1,7,13,19-tetraoxa-4,10,16,22-tetraazacyclotetracosan-2,5,8,11,14,17,20,23-octaone] | 0.01 to 0.1
CC(C)C[C@H]1C(=O)O[C@H](Cc2ccc(Cn3cnnn3)cc2)C(=O)N(C)[C@@H](CC(C)C)C(=O)O[C@H](C)C(=O)N(C)[C@@H](CC(C)C)C(=O)O[C@H](Cc2ccc(Cn3cnnn3)cc2)C(=O)N(C)[C@@H](CC(C)C)C(=O)O[C@H](C)C(=O)N1C [Example 9-18, (3S,6R,9S,12R,15S,18R,21S,24R)-6,18-bis(4-((1H-tetrazol-1-yl)methyl)benzyl)-3,9,15,21-tetraisobutyl-4,10,12,16,22,24-hexamethyl-1,7,13,19-tetraoxa-4,10,16,22-tetraazacyclotetracosan-2,5,8,11,14,17,20,23-octaone] | 0.01 to 0.1
CC(C)C[C@H]1C(=O)O[C@H](Cc2ccc(Cn3ccc(Br)cc3=O)cc2)C(=O)N(C)[C@@H](CC(C)C)C(=O)O[C@H](C)C(=O)N(C)[C@@H](CC(C)C)C(=O)O[C@H](Cc2ccc(Cn3ccc(Br)cc3=O)cc2)C(=O)N(C)[C@@H](CC(C)C)C(=O)O[C@H](C)C(=O)N1C [Example 9-20, (3S,6R,9S,12R,15S,18R,21S,24R)-6,18-bis(4-((4-bromo-2-oxopyridin-1 (2H)-yl)methyl)benzyl)-3,9,15,21-tetraisobutyl-4,10,12,16,22,24-hexamethyl-1,7,13,19-tetraoxa-4,10,16,22-tetraazacyclotetracosan-2,5,8,11,14,17,20,23-octaone] | 0.01 to 0.1
CC(C)C[C@H]1C(=O)O[C@H](Cc2ccc(Cn3ccc(Cl)cc3=O)cc2)C(=O)N(C)[C@@H](CC(C)C)C(=O)O[C@H](C)C(=O)N(C)[C@@H](CC(C)C)C(=O)O[C@H](Cc2ccc(Cn3ccc(Cl)cc3=O)cc2)C(=O)N(C)[C@@H](CC(C)C)C(=O)O[C@H](C)C(=O)N1C [Example 9-21, (3S,6R,9S,12R,15S,18R,21S,24R)-6,18-bis(4-((4-chloro-2-oxopyridin-1 (2H)-yl)methyl)benzyl)-3,9,15,21-tetraisobutyl-4,10,12,16,22,24-hexamethyl-1,7,13,19-tetraoxa-4,10,16,22-tetraazacyclotetracosan-2,5,8,11,14,17,20,23-octaone] | 0.001 to 0.01
Cc1ccn(Cc2ccc(C[C@H]3OC(=O)[C@H](CC(C)C)N(C)C(=O)[C@@H](C)OC(=O)[C@H](CC(C)C)N(C)C(=O)[C@@H](Cc4ccc(Cn5ccc(C)cc5=O)cc4)OC(=O)[C@H](CC(C)C)N(C)C(=O)[C@@H](C)OC(=O)[C@H](CC(C)C)N(C)C3=O)cc2)c(=O)c1 [Example 9-27, (3S,6R,9S,12R,15S,18R,21S,24R)-3,9,15,21-tetraisobutyl-4,6,10,16,18,22-hexamethyl-12,24-bis(4-((4-methyl-2-oxopyridin-1 (2H)-yl)methyl)benzyl)-1,7,13,19-tetraoxa-4,10,16,22-tetraazacyclotetracosan-2,5,8,11,14,17,20,23-octaone] | 0.01 to 0.1
CC(C)C[C@H]1C(=O)O[C@H](Cc2ccc(Cn3nnc4ccccc43)cc2)C(=O)N(C)[C@@H](CC(C)C)C(=O)O[C@H](C)C(=O)N(C)[C@@H](CC(C)C)C(=O)O[C@H](Cc2ccc(Cn3nnc4ccccc43)cc2)C(=O)N(C)[C@@H](CC(C)C)C(=O)O[C@H](C)C(=O)N1C [Example 9-29, (3S,6R,9S,12R,15S,18R,21S,24R)-6,18-bis(4-((1H-benzo[d][1,2,3]triazol-1-yl)methyl)benzyl)-3,9,15,21-tetraisobutyl-4,10,12,16,22,24-hexamethyl-1,7,13,19-tetraoxa-4,10,16,22-tetraazacyclotetracosan-2,5,8,11,14,17,20,23-octaone] | 0.01 to 0.1
